Experimental data taken from publication PMC3341351, “Down-Regulation of GABAA Receptor via Promiscuity with the Vasoactive Peptide Urotensin II Receptor. Potential Involvement in Astrocyte Plasticity” (PLoS ONE, 2012).

What was measured:
[1] = test system: GABAAR co-expressed with UT^HA 370; experiment: Patch-clamp of Iso-evoked current in CHO co-expressing GABAAR and truncated UT^HA 370; format: cell-based; settings: hUII 10^−8 M, 1 min, Iso 10^−4 M, 2 s
Excerpt: For UT epitope-tagged with HA (UT^HA), or c-myc (UT^c-myc), human UT receptor cDNA inserted into pcDNA3.1 (Ressource Center, MI, USA) was amplified and PCR products were subcloned using the EcoRI and XhoI sites of pCMV-HA or pCMV-c-myc. Mutant UT receptor cDNAs were constructed by oligonucleotide-directed mutagenesis (Expand High Fidelity PCR System; Roche) using the human UT receptor cDNA inserted into pcDNA3.1 as a template. Two sets of forward and reverse oligonucleotides were used (Table S2) to introduce stop codons in frame of Leu370, Phe351, Gly332 and Thr319 (to generate UT371, UT351, UT332 and UT319, respectively). PCR products were subcloned using the EcoRI and XhoI sites of pCMV-HA after digestion by the same restriction enzymes. Mutagenesis was confirmed by automated nucleotide sequencing.
The conventional whole-cell configuration of the patch-clamp technique was used to study the GABA-gated currents in astrocytes and granule neurons, UT stably transfected CHO, CHO-UT, and CHO transiently transfected with diverse variants of UT and GABAAR subunits. After 24-h transfection, cell culture coverslips were placed in a small chamber (1.5 ml) on a stage of a right microscope DMLFSA (Leica, Heidelberg, Germany) and superfused continuously with the following bath solution containing (in mM): NaCl, 150; KCl, 2.5; HEPES, 5; CaCl2, 2; MgCl2, 1; glucose, 10 (pH 7.4 adjusted with NaOH). […]

[2] = test system: cultured rat cortical astrocytes; parameters: method as in PMID 16942596, PMID 20192922; settings: ref [41], [42]; cited from earlier work

| Substance | hUII-induced fast short-term inhibition with UT^HA 370 [1] | hUII-induced long-term inhibition with UT^HA 370 ([1]; washout) | Effect on cell proliferation [2] |
| --- | --- | --- | --- |
| ETPDCFWKYCV (disulfide) [hUII, human urotensin II, synthesized by solid phase methodology] | totally abolished | delayed, and significantly altered | – |
| UII: Urotensin II, species not stated at that place (rUII in astrocytes, hUII in CHO and human cells) | – | – | stimulates cell proliferation |
